Here are results for 45 compounds from the Deep4Chem optical property database.

A short description of the data set: solvent given as SMILES.

Where the note is “in C1CCOC1”, `CCC1(CC)c2cc(-c3cccs3)ccc2-c2c1c1c(c3c2C(CC)(CC)c2cc(-c4cccs4)ccc2-3)C(CC)(CC)c2cc(-c3cccs3)ccc2-1` registered an absorption maximum of 340 nm.

`COC1=C/C(=C\C=C2C=CN(Cc3ccc(Br)cc3)C=C2)C=CC1=O`: the absorption maximum (in CC#N) stood at 617 nm; the absorption maximum (in CC(C)=O) was determined as 624 nm; the absorption maximum (in CC(C)CO) is on record as 576 nm; the absorption maximum (in CC(C)O) is recorded as 585 nm; the absorption maximum (in CCC#N) came out at 620 nm; the absorption maximum (in CCCCCCO) was determined as 584 nm. The absorption maximum is, setting by setting: (in CCCCCO) 588 nm; (in CCCCO) 576 nm; (in CCCO) 577 nm; (in CCO) 568 nm; (in CN(C)C=O) 621 nm; (in CN(C)P(=O)(N(C)C)N(C)C) 629 nm. Moreover, the absorption maximum turned out to be 537 nm (in CO) and 619 nm (in CS(C)=O).

Regarding `CC1(C)c2ccccc2N(c2ccc(C(=C(C#N)C#N)c3ccc(N4c5ccccc5C(C)(C)c5ccccc54)cc3)cc2)c2ccccc21`, the absorption maximum (in Cc1ccccc1) came to 436 nm.

Compound `CCC1(CC)c2cc(/C=C/c3ccc(N(c4ccccc4)c4ccccc4)cc3)ccc2-c2ccc(/C=C/c3ccc(N(c4ccccc4)c4ccccc4)cc3)cc21` yielded an absorption maximum (in Cc1ccccc1) of 412 nm.

Consider `C(=C\c1cccc2ccccc12)/c1ncc(-c2ccccc2)o1`, for which the absorption maximum (in ClCCl) came to 357 nm.

Consider `CCCCCCOc1cc2cc(=O)oc3ccc4cccc1c4c23`, for which, under “in CC1CCCO1”, the absorption maximum is recorded as 460 nm.

`Cc1nc2c(ccc3c2sc(/C=C/c2cc4c5c(c2)CCCN5CCC4)[n+]3C)s1`: the absorption maximum runs as follows: (in CO) 574 nm; (in ClC(Cl)Cl) 595 nm.

Take `Cc1c(COC(=O)Cc2cccc3ccccc23)n2c(OCC(=O)Cc3cccc4ccccc34)c(C)c(=O)n2c1=O`: the absorption maximum (in CCO) is 379 nm.

In the case of `CCCCCCN1C(=O)c2cccc3c(-c4ccc(Cl)s4)ccc(c23)C1=O`, the absorption maximum (in ClC(Cl)Cl) is on record as 374 nm.

For the setting “in ClC(Cl)Cl”, `Cc1ccc(-n2c3ccc(-c4ccc(-c5nc6ccccc6n5-c5ccccc5)cc4)cc3c3cc(-c4ccc(-c5nc6ccccc6n5-c5ccccc5)cc4)ccc32)cc1` returned an absorption maximum of 318 nm.

For `CCC1(CC)c2cc(C=C(C#N)C#N)ccc2-c2ccc(N(C)C)cc21`, the absorption maximum reads like this: (in C1CCCCC1) 480 nm; (in CC#N) 474 nm; (in CCO) 478 nm; (in CCOCC) 470 nm; (in CS(C)=O) 490 nm; (in ClCCl) 490 nm. Further, the absorption maximum (in c1ccccc1) was 480 nm.

`CCC1=C(C)C2C(c3ccc(-c4ccc(-c5nc6c7ccccc7c7ccccc7c6n5-c5ccc(C(C)(C)C)cc5)cc4)cc3)c3c(C)c(CC)c(C)n3[B-](F)(F)[N+]2=C1C` (configuration not stated) displayed an absorption maximum (in ClC(Cl)Cl) of 526 nm.

As to `C(=C\c1ccc(N(c2ccccc2)c2ccccc2)cc1)/c1ccc(-c2cc(-c3ccccn3)nc(-c3ccccn3)c2)cc1`, the absorption maximum is, setting by setting: (in C1CCOC1) 382 nm; (in C1COCCO1) 382 nm; (in CC#N) 379 nm; (in CCO) 379 nm; (in ClCCl) 383 nm.

As to `COc1ccc2cc(C3=[N+]4C(=Nc5c(-c6ccccc6)cc(-c6ccc7cc(OC)ccc7c6)n5[B-]4(F)F)C(c4ccccc4)=C3Br)ccc2c1`, the absorption maximum by setting is: (in ClC(Cl)Cl) 695 nm; (in ClCCl) 695 nm.

As to `CCc1ccc(C2=[N+]3C(=Cc4c5ccc(OC)cc5c(-c5ccc(CC)s5)n4[B-]3(F)F)c3ccc(OC)cc32)s1`, where the note is “in ClCCl”, the absorption maximum was 727 nm.

Compound `COc1ccc(C2=C3C(C)=CC(C=Cc4ccc(C(=O)OC5C[C@H]6CCC5(C)C6(C)C)cc4)=[N+]3[B-](F)(F)n3c(/C=C/c4ccc(C(=O)OC5CC6CCC5(C)C6(C)C)cc4)cc(C)c32)cc1` (some centres not stated) had an absorption maximum (in Cc1ccccc1) of 640 nm.

The compound `CC(C)(C)c1ccc2c(c1)c1cc(C(C)(C)C)ccc1n2-c1ccc(N(c2ccc(-c3ccc(-c4ccc(-c5ccc(-c6ccc(N(c7ccc(-n8c9ccc(C(C)(C)C)cc9c9cc(C(C)(C)C)ccc98)cc7)c7ccc(-n8c9ccc(C(C)(C)C)cc9c9cc(C(C)(C)C)ccc98)cc7)cc6)cc5)c5nsnc45)cc3)cc2)c2ccc(-n3c4ccc(C(C)(C)C)cc4c4cc(C(C)(C)C)ccc43)cc2)cc1` showed an absorption maximum (in ClCCl) of 422 nm.

Take `CCCCCCc1cc2c(s1)-c1sc(CCCCCC)cc1P(c1ccccc1)(c1ccccc1)=[O+][B-]2(c1c(C)cc(C)cc1C)c1c(C)cc(C)cc1C`: where the note is “in C1CCOC1”, the absorption maximum was 431 nm.

Consider `c1ccc2c(c1)c1ccccc1c1ccccc21`, for which the absorption maximum (in ClCCl) is on record as 286 nm.

For `N#CSC1=CC2=C(c3ccccc3)c3cc(SC#N)c(N4CCOCC4)n3[B-](F)(F)[N+]2=C1N1CCOCC1`, the absorption maximum runs as follows: (in CC#N) 588 nm; (in CCCCCC) 599 nm; (in CCOC(C)=O) 593 nm; (in CO) 585 nm; (in ClCCl) 596 nm.

Compound `CCCCCCCCCCOc1cc(OCCCCCCCCCC)cc(C2=C3C(/C=C/c4ccc(OC)cc4)=CC(/C=C/c4ccc(OC)cc4)=[N+]3[B-](F)(F)n3c(/C=C/c4ccc(OC)cc4)cc(C=Cc4ccc(OC)cc4)c32)c1` returned an absorption maximum (in ClC(Cl)Cl) of 689 nm.

Consider `CC1=C(c2ccc(N(c3ccccc3)c3ccccc3)cc2)C(C)=[N+]2C1=C(c1c(-c3ccccn3)nc3ccccn13)c1c(C)c(-c3ccc(N(c4ccccc4)c4ccccc4)cc3)c(C)n1[B-]2(F)F`, for which, where the note is “in ClCCl”, the absorption maximum amounted to 568 nm.

Turning to `CCC1(CC)c2ccccc2-c2ccc(C#Cc3ccc4ccc5cccc6ccc3c4c56)cc21`, the absorption maximum runs as follows: (in C1CCCCC1) 401 nm; (in C1CCOC1) 402 nm; (in CC#N) 399 nm; (in CCOC(C)=O) 400 nm; (in CN(C)C=O) 404 nm; (in Cc1ccccc1) 405 nm. Moreover, the absorption maximum (in ClC(Cl)Cl) was found to be 404 nm and the absorption maximum (in ClCCl) is recorded as 403 nm.

Compound `O=C1OC(=O)C2=C1[Se][C@]13C2=C[C@H](c2ccccc21)c1ccccc13` showed an absorption maximum (in ClCCl) of 421 nm.

In turn, `C=C` returned an absorption maximum (in CCCCCCC) of 162 nm.

`C[Si](C)(C)C#Cc1ccc2c3cccc4cccc(c5cccc1c52)c43` yielded an absorption maximum (in C1CCCCC1) of 459 nm.

In the case of `Cn1c2nc(=O)[nH]c(=O)c-2nc2ccccc21`, the absorption maximum (in CC1CCCO1) is reported as 459 nm.

With `c1ccc(-n2c(-c3ccc([Si](c4ccc(-c5nc6ccccc6n5-c5ccccc5)cc4)(c4ccc(-c5nc6ccccc6n5-c5ccccc5)cc4)c4ccc(-c5nc6ccccc6n5-c5ccccc5)cc4)cc3)nc3ccccc32)cc1`, the absorption maximum (in ClCCl) worked out at 306 nm.

In the case of `CCOC(=O)c1c(-c2cc3cc4c(cc3oc2=O)OC(C)(C)CC4)nn(-c2cccc(C)c2)c1C(=O)OCC`, the absorption maximum (in ClCCl) amounted to 347 nm.

Turning to `c1ccc(-c2nc(-c3ccccc3)nc(-c3ccc(-n4c5ccccc5c5cc6c(cc54)c4ccccc4n6-c4ccccc4)cc3)n2)cc1`, the absorption maximum (in Cc1ccccc1) is 403 nm.

On to `CCCCOC(=O)c1cc(Oc2ccc(C(C)(C)C)cc2)c2c3c(Cl)cc4c5c(cc(Cl)c(c6c(Oc7ccc(C(C)(C)C)cc7)cc(C(=O)OCCCC)c1c26)c53)C(=O)N(c1c(C(C)C)cccc1C(C)C)C4=O`, for which, under “in Cc1ccccc1”, the absorption maximum was determined as 529 nm.

`FC(F)(F)c1ccc2oc3nc4oc5ccc(N6c7ccccc7Oc7ccccc76)cc5c4cc3c2c1` gave an absorption maximum (in ClC(Cl)Cl) of 344 nm.

On to `CCOC(=O)/C(C)=C/C1=C(c2ccc(C)cc2)C2=Nc3c(-c4ccc(C)cc4)c(-c4ccc(OC)cc4)c(-c4ccc(C)cc4)n3[B-](F)(F)[N+]2=C1c1ccc(C)cc1`, for which the absorption maximum (in ClC(Cl)Cl) was determined as 670 nm.

Consider `Cc1nc2c(ccc3ccc(N(C)C)cc32)oc1=O`, for which, where the note is “in c1ccccc1”, the absorption maximum was 426 nm.

Under “in C1COCCO1”, `COC(=O)c1ccc(/C=C2\N=C(c3ccc(OC)c(OC)c3)NC2=O)cc1` registered an absorption maximum of 403 nm.

Turning to `Cn1c(=O)c(/N=N/c2cc(S(=O)(=O)O)ccc2C(=O)O)c(O)c2ccccc21`, the absorption maximum by setting is: (in C1CCOC1) 408 nm; (in CC(C)=O) 407 nm; (in CCOC(C)=O) 407 nm; (in CO) 406 nm; (in CS(C)=O) 417 nm; (in Cc1ccccc1) 421 nm. For the same compound, the absorption maximum turned out to be 420 nm (in ClCCl) and 421 nm (in O).

The compound `COc1ccc2cc(C3=[N+]4C(=Nc5c(-c6ccccc6)cc(-c6ccc7cc(OC)ccc7c6)n5[B-]4(F)F)C(c4ccccc4)=C3)ccc2c1` displayed an absorption maximum (in ClC(Cl)Cl) of 706 nm and an absorption maximum (in ClCCl) of 706 nm.

Consider `CN(C)c1ccc(/C=C/c2cc3ccccc3c[n+]2C)cc1`, for which the absorption maximum is, setting by setting: (in CC(C)=O) 425 nm; (in ClCCl) 441 nm.

Compound `CCCCCCOc1cc(C=C2C(=O)c3ccccc3C2=O)c(OCCCCCC)cc1C=C1C(=O)c2ccccc2C1=O` gave an absorption maximum (in ClCCl) of 512 nm.

With `c1ccc(-c2nc(-c3ccccc3)nc(-c3ccc(-n4c5ccccc5c5cc6c(cc54)C(c4ccccc4)(c4ccccc4)c4ccccc4-6)cc3)n2)cc1`, the absorption maximum (in Cc1ccccc1) amounted to 366 nm.

Consider `CCCc1c(C(=O)c2ccc3c4c(cccc24)-c2cccc4c2C3CC=C4)c2ccc3cccc4c5cccc6ccc1c(c65)c2c34` (configuration not stated), for which, for the setting “in ClCCl”, the absorption maximum is 468 nm.

`CC1=C(c2cccs2)C(C)=[N+]2C1=C(c1ccc(O)cc1)c1c(C)c(-c3cccs3)c(C)n1[B-]2(F)F`: the absorption maximum is 521 nm (in CO), 530 nm (in Cc1ccccc1) and 528 nm (in ClCCl).

The compound `CCCC1(CCC)c2cc(C=C(C#Cc3ccccc3)C#Cc3ccccc3)ccc2-c2ccc(C=C(C#Cc3ccccc3)C#Cc3ccccc3)cc21` yielded an absorption maximum (in ClC(Cl)Cl) of 422 nm.

Compound `CC1CC(C)(C)N(C)c2ccc(/C=C/c3ccc(/C=C(\C#N)C(=O)O)s3)cc21` (configuration not stated) gave an absorption maximum (in ClCCl) of 525 nm.

Compound `COc1ccc2c(c1)c1ccccc1n2-c1nc2ccccc2nc1-n1c2ccccc2c2cc(OC)ccc21` displayed an absorption maximum (in Cc1ccccc1) of 423 nm.
